According to patent US12509431B2, “1,4-dihydroquinazolinone compounds and uses thereof” (Edgewise Therapeutics, Inc., priority 2022, dated 2025):

Tested on: Rabbit Skeletal myofibrils (rabbit psoas muscle)
Experiment: Myofibril ATPase assay (PK/LDH NADH-coupled), skeletal myofibrils
Assay type: biochemical
Settings: Table 8
How it was run: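 Rabbit psoas myofibrils in pCa (PIPES/CaCl2/EGTA, pH 7.0) buffer; ADP coupled via PK/LDH to NADH loss, read at 340 nm every 1.5–2 min for 75 min. Slopes normalized to vehicle (100%) and fit to 4-parameter logistic for EC25, plus EC50 for inhibitors.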

Row | Compound | Rabbit Psoas IC25 [µM]
1 | Cc1cccc2c1C1(CC1)N(CC(=O)N[C@@H](C)c1ncc(C#N)nc1C)C(=O)N2 [Compound B309] | 2.23
2 | Cc1cccc2c1C1(CC1)N(CC(=O)N[C@H]1COc3cc(C#N)cc(F)c31)C(=O)N2 [Compound B313] | 9.12
3 | C[C@@H](NC(=O)CN1C(=O)Nc2ccc(F)c(F)c2C12CC2)c1cnc(C#N)cn1 [Compound B314] | 0.12
4 | C[C@H](NC(=O)CN1C(=O)Nc2ccc(F)c(F)c2C12CC2)c1cnc(C#N)cn1 [Compound B315] | 0.02
5 | N#Cc1cc(F)c2c(c1)OC[C@H]2NC(=O)CN1C(=O)Nc2ccc(F)c(F)c2C12CC2 [Compound B319] | 5.96
6 | N#Cc1cc(F)c2c(c1)OC[C@@H]2NC(=O)CN1C(=O)Nc2ccc(F)c(F)c2C12CC2 [Compound B320] | 0.33
7 | N#Cc1cnc2c(c1)OC[C@H]2NC(=O)CN1C(=O)Nc2ccc(F)c(F)c2C12CC2 [Compound B321] | 0.23
8 | N#Cc1cnc2c(c1)OC[C@@H]2NC(=O)CN1C(=O)Nc2ccc(F)c(F)c2C12CC2 [Compound B322] | 0.03
9 | C[C@@H](NC(=O)CN1C(=O)Nc2ccc(F)c(F)c2C12CC2)c1ncc(C#N)cc1F [Compound B323] | 0.63
10 | Cc1nc(C#N)cnc1[C@@H](C)NC(=O)CN1C(=O)Nc2ccc(F)c(F)c2C12CC2 [Compound B325] | 2.34
11 | Cc1cc(C#N)nnc1[C@@H](C)NC(=O)CN1C(=O)Nc2ccc(F)cc2C12CC2 [Compound B328] | 100.00
12 | Cc1cc(C#N)nnc1[C@H](C)NC(=O)CN1C(=O)Nc2ccc(F)cc2C12CC2 [Compound B329] | 0.13
13 | Cc1nc(C#N)cnc1[C@H](C)NC(=O)CN1C(=O)Nc2ccc(F)cc2C12CC2 [Compound B331] | 100.00

The remaining lines, values ahead:

Row | Rabbit Psoas IC25 [µM] | Compound
14 | 100.00 | Cc1cccc2c1C1(CC1)N(CC(=O)N[C@H](C)c1ncc(C#N)nc1C)C(=O)N2 [Compound B308]
15 | 0.08 | N#Cc1cnc2c(c1)OC[C@H]2NC(=O)CN1C(=O)Nc2cccc(C#N)c2C12CC2 [Compound B310]
16 | 100.00 | N#Cc1cnc2c(c1)OC[C@@H]2NC(=O)CN1C(=O)Nc2cccc(C#N)c2C12CC2 [Compound B311]
17 | 0.05 | Cc1cccc2c1C1(CC1)N(CC(=O)N[C@@H]1COc3cc(C#N)cc(F)c31)C(=O)N2 [Compound B312]
18 | 0.03 | C[C@H](NC(=O)CN1C(=O)Nc2ccc(F)c(F)c2C12CC2)c1ncc(C#N)cc1F [Compound B324]
19 | 0.02 | Cc1nc(C#N)cnc1[C@H](C)NC(=O)CN1C(=O)Nc2ccc(F)c(F)c2C12CC2 [Compound B326]
20 | 0.05 | Cc1nc(C#N)cnc1[C@@H](C)NC(=O)CN1C(=O)Nc2ccc(F)cc2C12CC2 [Compound B330]
21 | 0.06 | Cc1nc(C#N)ncc1[C@@H](C)NC(=O)CN1C(=O)Nc2ccc(F)cc2C12CC2 [Compound B332]
22 | 100.00 | Cc1nc(C#N)ncc1[C@H](C)NC(=O)CN1C(=O)Nc2ccc(F)cc2C12CC2 [Compound B333]

Target: T1, Porcine Ventricle myofibrils (left ventricle of Yucatan minipigs) (Sus scrofa, UniProt P79293)
T1 construct: Myofibrils from porcine cardiac muscle was isolated from the left ventricle of Yucatan minipigs; tissue Exemplar Genetics; host or cells: left ventricle of Yucatan minipigs
Experiment: Myofibril ATPase assay (PK/LDH NADH-coupled), ventricle myofibrils
Assay type: biochemical
Settings: Table 8
How it was run: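 Yucatan minipig left-ventricle myofibrils; ATPase measured by PK/LDH-coupled NADH loss at 340 nm, read every 1.5-2 min for 75 min. Slopes normalized to vehicle (100%) and fit to 4-parameter logistic model; EC25 and, for inhibitors, EC50 calculated.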

T1 sequence (P79293 whole entry): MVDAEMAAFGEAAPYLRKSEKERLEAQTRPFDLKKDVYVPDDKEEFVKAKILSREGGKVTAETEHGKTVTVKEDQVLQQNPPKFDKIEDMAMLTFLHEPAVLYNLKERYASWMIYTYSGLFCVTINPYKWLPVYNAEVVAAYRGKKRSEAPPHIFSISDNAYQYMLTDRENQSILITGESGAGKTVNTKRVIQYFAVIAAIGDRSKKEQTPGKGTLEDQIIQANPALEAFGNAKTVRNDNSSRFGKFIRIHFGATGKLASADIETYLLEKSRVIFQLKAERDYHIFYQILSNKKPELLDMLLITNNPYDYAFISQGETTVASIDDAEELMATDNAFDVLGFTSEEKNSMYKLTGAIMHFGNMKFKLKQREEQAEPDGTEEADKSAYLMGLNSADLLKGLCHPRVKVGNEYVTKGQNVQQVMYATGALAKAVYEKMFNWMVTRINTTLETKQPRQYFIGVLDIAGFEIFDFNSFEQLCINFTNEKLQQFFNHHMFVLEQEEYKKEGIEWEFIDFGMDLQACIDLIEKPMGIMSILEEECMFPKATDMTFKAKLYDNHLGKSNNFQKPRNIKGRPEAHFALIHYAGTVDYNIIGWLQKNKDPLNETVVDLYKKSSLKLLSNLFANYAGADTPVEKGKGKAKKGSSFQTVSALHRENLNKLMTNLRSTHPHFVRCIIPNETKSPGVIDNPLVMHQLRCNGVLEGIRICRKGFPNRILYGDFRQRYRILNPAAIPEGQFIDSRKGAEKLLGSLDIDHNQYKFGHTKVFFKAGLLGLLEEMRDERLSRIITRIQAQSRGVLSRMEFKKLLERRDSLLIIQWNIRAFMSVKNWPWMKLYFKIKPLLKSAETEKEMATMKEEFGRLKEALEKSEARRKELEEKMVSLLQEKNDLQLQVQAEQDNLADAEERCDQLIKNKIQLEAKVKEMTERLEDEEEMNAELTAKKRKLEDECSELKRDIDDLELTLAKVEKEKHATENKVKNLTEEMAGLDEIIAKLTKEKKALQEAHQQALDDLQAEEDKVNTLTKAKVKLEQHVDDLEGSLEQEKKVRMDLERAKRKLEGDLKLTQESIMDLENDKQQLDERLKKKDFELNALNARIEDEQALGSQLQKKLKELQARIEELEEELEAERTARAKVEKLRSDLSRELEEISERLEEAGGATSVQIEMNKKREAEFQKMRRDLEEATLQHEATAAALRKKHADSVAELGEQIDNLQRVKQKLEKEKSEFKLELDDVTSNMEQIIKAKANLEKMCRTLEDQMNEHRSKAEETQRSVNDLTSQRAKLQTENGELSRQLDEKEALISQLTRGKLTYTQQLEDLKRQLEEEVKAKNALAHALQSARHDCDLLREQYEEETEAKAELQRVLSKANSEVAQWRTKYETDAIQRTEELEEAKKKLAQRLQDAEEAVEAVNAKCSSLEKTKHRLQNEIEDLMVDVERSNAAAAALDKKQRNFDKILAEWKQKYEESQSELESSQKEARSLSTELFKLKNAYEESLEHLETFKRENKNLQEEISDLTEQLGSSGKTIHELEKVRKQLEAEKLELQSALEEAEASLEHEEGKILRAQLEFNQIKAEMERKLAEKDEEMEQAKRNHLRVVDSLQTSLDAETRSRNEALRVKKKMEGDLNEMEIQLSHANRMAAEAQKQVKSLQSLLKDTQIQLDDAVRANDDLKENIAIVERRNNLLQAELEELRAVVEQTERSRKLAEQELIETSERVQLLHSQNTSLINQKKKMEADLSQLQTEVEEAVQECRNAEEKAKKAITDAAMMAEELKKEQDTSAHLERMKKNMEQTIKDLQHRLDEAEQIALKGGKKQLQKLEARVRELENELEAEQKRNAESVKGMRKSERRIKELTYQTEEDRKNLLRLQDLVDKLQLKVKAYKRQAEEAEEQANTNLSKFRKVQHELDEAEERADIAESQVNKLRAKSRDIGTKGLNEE

Row | Compound | Porcine Ventricle IC25 [µM]
23 | Cc1cccc2c1C1(CC1)N(CC(=O)N[C@@H](C)c1ncc(C#N)nc1C)C(=O)N2 [Compound B309] | 10.57
24 | Cc1cccc2c1C1(CC1)N(CC(=O)N[C@H]1COc3cc(C#N)cc(F)c31)C(=O)N2 [Compound B313] | 3.91
25 | C[C@@H](NC(=O)CN1C(=O)Nc2ccc(F)c(F)c2C12CC2)c1cnc(C#N)cn1 [Compound B314] | 0.50
26 | C[C@H](NC(=O)CN1C(=O)Nc2ccc(F)c(F)c2C12CC2)c1cnc(C#N)cn1 [Compound B315] | 0.09
27 | N#Cc1cc(F)c2c(c1)OC[C@H]2NC(=O)CN1C(=O)Nc2ccc(F)c(F)c2C12CC2 [Compound B319] | 0.10
28 | N#Cc1cc(F)c2c(c1)OC[C@@H]2NC(=O)CN1C(=O)Nc2ccc(F)c(F)c2C12CC2 [Compound B320] | 0.24
29 | N#Cc1cnc2c(c1)OC[C@H]2NC(=O)CN1C(=O)Nc2ccc(F)c(F)c2C12CC2 [Compound B321] | 0.97
30 | N#Cc1cnc2c(c1)OC[C@@H]2NC(=O)CN1C(=O)Nc2ccc(F)c(F)c2C12CC2 [Compound B322] | 0.06
31 | C[C@@H](NC(=O)CN1C(=O)Nc2ccc(F)c(F)c2C12CC2)c1ncc(C#N)cc1F [Compound B323] | 0.32
32 | Cc1nc(C#N)cnc1[C@@H](C)NC(=O)CN1C(=O)Nc2ccc(F)c(F)c2C12CC2 [Compound B325] | 3.21
33 | Cc1cc(C#N)nnc1[C@@H](C)NC(=O)CN1C(=O)Nc2ccc(F)cc2C12CC2 [Compound B328] | 100.00
34 | Cc1cc(C#N)nnc1[C@H](C)NC(=O)CN1C(=O)Nc2ccc(F)cc2C12CC2 [Compound B329] | 0.42
35 | Cc1nc(C#N)cnc1[C@H](C)NC(=O)CN1C(=O)Nc2ccc(F)cc2C12CC2 [Compound B331] | 66.75

Other lines, results leading:

Row | Porcine Ventricle IC25 [µM] | Compound
36 | 100.00 | Cc1cccc2c1C1(CC1)N(CC(=O)N[C@H](C)c1ncc(C#N)nc1C)C(=O)N2 [Compound B308]
37 | 0.37 | N#Cc1cnc2c(c1)OC[C@H]2NC(=O)CN1C(=O)Nc2cccc(C#N)c2C12CC2 [Compound B310]
38 | 86.79 | N#Cc1cnc2c(c1)OC[C@@H]2NC(=O)CN1C(=O)Nc2cccc(C#N)c2C12CC2 [Compound B311]
39 | 0.18 | Cc1cccc2c1C1(CC1)N(CC(=O)N[C@@H]1COc3cc(C#N)cc(F)c31)C(=O)N2 [Compound B312]
40 | 0.05 | C[C@H](NC(=O)CN1C(=O)Nc2ccc(F)c(F)c2C12CC2)c1ncc(C#N)cc1F [Compound B324]
41 | 0.06 | Cc1nc(C#N)cnc1[C@H](C)NC(=O)CN1C(=O)Nc2ccc(F)c(F)c2C12CC2 [Compound B326]
42 | 0.19 | Cc1nc(C#N)cnc1[C@@H](C)NC(=O)CN1C(=O)Nc2ccc(F)cc2C12CC2 [Compound B330]
43 | 0.10 | Cc1nc(C#N)ncc1[C@@H](C)NC(=O)CN1C(=O)Nc2ccc(F)cc2C12CC2 [Compound B332]
44 | 100.00 | Cc1nc(C#N)ncc1[C@H](C)NC(=O)CN1C(=O)Nc2ccc(F)cc2C12CC2 [Compound B333]

Tested on: Porcine Atria myofibrils
Experiment: Myofibril ATPase assay (PK/LDH NADH-coupled), atria myofibrils
Assay type: biochemical
Settings: Table 8
How it was run: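 Porcine atrial myofibril ATPase followed via PK/LDH-coupled NADH depletion, absorbance at 340 nm read every 1.5-2 min over 75 min. Slopes (mAU/min) normalized to vehicle as 100% and fit to a 4-parameter logistic; EC25% derived, plus EC50% for inhibitors.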

Row | Compound | Porcine Atria IC25 [µM]
45 | Cc1cccc2c1C1(CC1)N(CC(=O)N[C@@H](C)c1ncc(C#N)nc1C)C(=O)N2 [Compound B309] | 10.36
46 | Cc1cccc2c1C1(CC1)N(CC(=O)N[C@H]1COc3cc(C#N)cc(F)c31)C(=O)N2 [Compound B313] | 2.29
47 | C[C@@H](NC(=O)CN1C(=O)Nc2ccc(F)c(F)c2C12CC2)c1cnc(C#N)cn1 [Compound B314] | 0.04
48 | C[C@H](NC(=O)CN1C(=O)Nc2ccc(F)c(F)c2C12CC2)c1cnc(C#N)cn1 [Compound B315] | 0.05
49 | N#Cc1cc(F)c2c(c1)OC[C@H]2NC(=O)CN1C(=O)Nc2ccc(F)c(F)c2C12CC2 [Compound B319] | 0.07
50 | N#Cc1cc(F)c2c(c1)OC[C@@H]2NC(=O)CN1C(=O)Nc2ccc(F)c(F)c2C12CC2 [Compound B320] | 0.23
51 | N#Cc1cnc2c(c1)OC[C@H]2NC(=O)CN1C(=O)Nc2ccc(F)c(F)c2C12CC2 [Compound B321] | 0.17
52 | N#Cc1cnc2c(c1)OC[C@@H]2NC(=O)CN1C(=O)Nc2ccc(F)c(F)c2C12CC2 [Compound B322] | 0.07
53 | C[C@@H](NC(=O)CN1C(=O)Nc2ccc(F)c(F)c2C12CC2)c1ncc(C#N)cc1F [Compound B323] | 0.10
54 | Cc1nc(C#N)cnc1[C@@H](C)NC(=O)CN1C(=O)Nc2ccc(F)c(F)c2C12CC2 [Compound B325] | 1.04
55 | Cc1cc(C#N)nnc1[C@@H](C)NC(=O)CN1C(=O)Nc2ccc(F)cc2C12CC2 [Compound B328] | 1.53
56 | Cc1cc(C#N)nnc1[C@H](C)NC(=O)CN1C(=O)Nc2ccc(F)cc2C12CC2 [Compound B329] | 0.20
57 | Cc1nc(C#N)cnc1[C@H](C)NC(=O)CN1C(=O)Nc2ccc(F)cc2C12CC2 [Compound B331] | 0.37

Other lines, results leading:

Row | Porcine Atria IC25 [µM] | Compound
58 | 20.75 | Cc1cccc2c1C1(CC1)N(CC(=O)N[C@H](C)c1ncc(C#N)nc1C)C(=O)N2 [Compound B308]
59 | 0.16 | N#Cc1cnc2c(c1)OC[C@H]2NC(=O)CN1C(=O)Nc2cccc(C#N)c2C12CC2 [Compound B310]
60 | 100.00 | N#Cc1cnc2c(c1)OC[C@@H]2NC(=O)CN1C(=O)Nc2cccc(C#N)c2C12CC2 [Compound B311]
61 | 0.10 | Cc1cccc2c1C1(CC1)N(CC(=O)N[C@@H]1COc3cc(C#N)cc(F)c31)C(=O)N2 [Compound B312]
62 | 0.04 | C[C@H](NC(=O)CN1C(=O)Nc2ccc(F)c(F)c2C12CC2)c1ncc(C#N)cc1F [Compound B324]
63 | 0.16 | Cc1nc(C#N)cnc1[C@H](C)NC(=O)CN1C(=O)Nc2ccc(F)c(F)c2C12CC2 [Compound B326]
64 | 0.08 | Cc1nc(C#N)cnc1[C@@H](C)NC(=O)CN1C(=O)Nc2ccc(F)cc2C12CC2 [Compound B330]
65 | 0.06 | Cc1nc(C#N)ncc1[C@@H](C)NC(=O)CN1C(=O)Nc2ccc(F)cc2C12CC2 [Compound B332]
66 | 100.00 | Cc1nc(C#N)ncc1[C@H](C)NC(=O)CN1C(=O)Nc2ccc(F)cc2C12CC2 [Compound B333]
